In patent EP3858438A1, “3,4-DIHYDRO-2H-SPIRO[ISOQUINOLINE-1,4'-PIPERIDIN]AMIDE DERIVATIVES HAVING MULTIMODAL ACTIVITY AGAINST PAIN” (ESTEVE PHARMACEUTICALS, S.A., priority 2020, dated 2021):
Structures can show the parent of a compound that is named as a salt.

Tests used:
human µ-opioid receptor = target: T1, human µ-opioid receptor (Homo sapiens, UniProt P35372); assay: Binding assay to human µ-opioid receptor ([3H]-DAMGO, transfected CHO-K1 cell membranes); details: binding expressed as Ki, [3H]-DAMGO 1 nM
T1 construct: expressed in transfected cells; host or cells: CHO-K1
T1 sequence (P35372 whole entry): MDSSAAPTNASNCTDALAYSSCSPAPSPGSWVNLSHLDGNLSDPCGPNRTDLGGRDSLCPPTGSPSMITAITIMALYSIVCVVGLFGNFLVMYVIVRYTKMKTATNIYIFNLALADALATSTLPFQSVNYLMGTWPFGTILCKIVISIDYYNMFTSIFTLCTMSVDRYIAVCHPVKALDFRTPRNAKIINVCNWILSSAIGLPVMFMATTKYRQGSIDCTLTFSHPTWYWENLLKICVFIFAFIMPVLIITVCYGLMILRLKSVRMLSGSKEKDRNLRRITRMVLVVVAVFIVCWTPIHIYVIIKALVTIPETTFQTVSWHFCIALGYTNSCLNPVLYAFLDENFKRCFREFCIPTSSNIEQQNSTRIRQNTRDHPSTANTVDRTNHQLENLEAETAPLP
Description: Binding assay to human µ-opioid receptor
Transfected CHO-K1 cell membranes (20 µg) were incubated with [^3H]-DAMGO (1 nM) in assay buffer containing Tris-HCl 50 mM, MgCl2 5 mM at pH 7.4.
NBS (non-specific binding) was measured by adding 10 µM naloxone. The binding of the test compound was measured at either one concentration (% inhibition at 1 or 10 µM) or five different concentrations to determine affinity values (Ki). Plates were incubated at 27 °C for 60 min. After the incubation period, the reaction mixture was then transferred to MultiScreen HTS, FC plates (Millipore), filtered and plates were washed 3 times with ice-cold 10 mM Tris-HCl (pH 7.4).
Filters were dried and counted at approximately 40% efficiency in a MicroBeta scintillation counter (Perkin-Elmer) using EcoScint liquid scintillation cocktail.

[1] = target: human α2δ-1 subunit of Cav2.2 calcium channel (Homo sapiens, UniProt P54289); assay: Binding assay to human α2δ-1 subunit of Cav2.2 calcium channel ([3H]-Gabapentin); details: binding expressed as Ki; [3H]-Gabapentin 15 nM, human α2δ-1 enriched membranes
Sequence of human α2δ-1 subunit of Cav2.2 calcium channel (P54289 25-1103): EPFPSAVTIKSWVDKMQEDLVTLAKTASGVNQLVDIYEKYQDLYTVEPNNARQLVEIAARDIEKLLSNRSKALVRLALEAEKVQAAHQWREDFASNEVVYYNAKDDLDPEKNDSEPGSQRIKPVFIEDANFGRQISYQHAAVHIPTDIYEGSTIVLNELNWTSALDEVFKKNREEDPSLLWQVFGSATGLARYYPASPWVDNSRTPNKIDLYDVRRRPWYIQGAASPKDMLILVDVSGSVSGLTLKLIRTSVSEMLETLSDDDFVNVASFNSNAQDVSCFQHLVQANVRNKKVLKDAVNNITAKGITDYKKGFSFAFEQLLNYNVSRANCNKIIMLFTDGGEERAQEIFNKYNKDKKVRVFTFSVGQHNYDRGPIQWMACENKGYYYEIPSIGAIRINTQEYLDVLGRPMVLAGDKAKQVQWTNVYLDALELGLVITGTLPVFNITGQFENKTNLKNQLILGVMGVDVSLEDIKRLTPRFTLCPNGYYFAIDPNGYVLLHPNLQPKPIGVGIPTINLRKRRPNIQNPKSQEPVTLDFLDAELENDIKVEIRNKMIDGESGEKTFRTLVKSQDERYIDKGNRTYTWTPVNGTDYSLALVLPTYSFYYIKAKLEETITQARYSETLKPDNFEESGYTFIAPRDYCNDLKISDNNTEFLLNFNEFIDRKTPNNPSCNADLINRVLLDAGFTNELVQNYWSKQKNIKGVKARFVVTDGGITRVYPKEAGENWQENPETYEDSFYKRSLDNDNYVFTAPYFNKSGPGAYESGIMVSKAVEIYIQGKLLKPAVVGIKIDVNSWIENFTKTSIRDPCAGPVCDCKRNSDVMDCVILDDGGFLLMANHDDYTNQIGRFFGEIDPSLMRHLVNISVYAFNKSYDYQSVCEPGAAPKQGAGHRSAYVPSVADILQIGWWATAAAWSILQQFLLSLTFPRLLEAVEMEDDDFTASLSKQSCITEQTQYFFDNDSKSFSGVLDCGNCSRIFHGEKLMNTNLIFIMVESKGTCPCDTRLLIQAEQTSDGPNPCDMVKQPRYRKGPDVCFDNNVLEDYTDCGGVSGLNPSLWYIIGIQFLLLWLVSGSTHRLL
Description: Binding assay to human α2δ-1 subunit of Cav2.2 calcium channel.
Human α2δ-1 enriched membranes (2.5 µg) were incubated with 15 nM of radiolabeled [3H]-Gabapentin in assay buffer containing Hepes-KOH 10 mM, pH 7.4.
NSB (non specific binding) was measured by adding 10 µM pregabalin. The binding of the test compound was measured at either one concentration (% inhibition at 1 or 10 µM) or five different concentrations to determine affinity values (Ki). After 60 min incubation at 27 °C, binding reaction was terminated by filtering through Multiscreen GF/C (Millipore) presoaked in 0.5 % polyethyleneimine in Vacuum Manifold Station, followed by 3 washes with ice-cold filtration buffer containing 50 mM Tris-HCl, pH 7.4.
Filter plates were dried at 60 °C for 1 h and 30 µl of scintillation cocktail were added to each well before radioactivity reading.
Readings were performed in a Trilux 1450 Microbeta radioactive counter (Perkin Elmer).

Row | SMILES | Ki (human µ-opioid receptor) [µM] | Ki [1] [µM]
1 | CC[C@@H](c1ccccc1)[C@@H](CN)C(=O)N1CCC2(CC1)c1ccccc1CCN2C [Example 1] | < 0.1 | < 0.5
2 | CNC[C@@H](C(=O)N1CCC2(CC1)c1ccccc1CCN2C)[C@@H](C)c1ccccc1 [Example 2, (2S,3R)-1-(2-methyl-3,4-dihydro-2H-spiro[isoquinoline-1,4'-piperidin]-1'-yl)-2-((methylamino)methyl)-3-phenylbutan-1-one] | 0.1 to 0.5 | < 0.5
3 | CC[C@@H](c1cccc(Cl)c1)[C@@H](CNC)C(=O)N1CCC2(CC1)c1ccccc1CCN2C [Example 3, (2S,3R)-3-(3-chlorophenyl)-1-(2-methyl-3,4-dihydro-2H-spiro[isoquinoline-1,4'-piperidin]-1'-yl)-2-((methylamino)methyl)pentan-1-one dihydrochloride] | 0.1 to 0.5 | < 0.5
4 | CC[C@@H](c1cccc(Cl)c1)[C@@H](CN)C(=O)N1CCC2(CC1)c1ccccc1CCN2C [Example 4, (2S,3R)-2-(aminomethyl)-3-(3-chlorophenyl)-1-(2-methyl-3,4-dihydro-2H-spiro[isoquinoline-1,4'-piperidin]-1'-yl)pentan-1-one] | < 0.1 | < 0.5
